# Laboratory results: US11634412B2, “3-phosphoglycerate dehydrogenase inhibitors and uses thereof” (Raze Therapeutics, Inc., priority 2016, dated 2023)
# Target: T1, Full length (FL) 3-Phosphoglycerate Dehydrogenase (PHGDH) (Homo sapiens, UniProt O43175)
# T1 construct: Full length (FL) 3-Phosphoglycerate Dehydrogenase (PHGDH) Diaphorase coupled assay (500 uM NAD)
# T1 sequence (O43175 1-533): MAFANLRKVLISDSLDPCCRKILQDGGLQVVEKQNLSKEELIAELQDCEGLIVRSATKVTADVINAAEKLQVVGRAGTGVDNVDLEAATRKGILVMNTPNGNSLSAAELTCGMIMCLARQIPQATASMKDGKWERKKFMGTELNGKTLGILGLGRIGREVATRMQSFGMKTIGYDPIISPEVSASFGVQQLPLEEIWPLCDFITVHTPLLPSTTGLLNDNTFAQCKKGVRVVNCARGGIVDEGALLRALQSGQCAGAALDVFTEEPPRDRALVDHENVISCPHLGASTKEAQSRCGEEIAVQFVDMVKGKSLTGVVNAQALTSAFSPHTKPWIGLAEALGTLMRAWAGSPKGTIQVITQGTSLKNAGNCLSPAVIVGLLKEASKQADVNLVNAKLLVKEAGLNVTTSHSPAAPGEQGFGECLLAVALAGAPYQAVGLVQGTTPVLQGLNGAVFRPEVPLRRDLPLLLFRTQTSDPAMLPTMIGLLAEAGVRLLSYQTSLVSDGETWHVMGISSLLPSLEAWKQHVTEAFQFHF
# Assay: Full length (FL) PHGDH Diaphorase coupled assay (20 uM NAD)
# Type: biochemical
# Conditions: full-length PHGDH 10 nM, 30° C. 60 minutes, resorufin fluorescence
# Method: (§1) PHGDH activity was determined by detecting the NADH produced during the reaction. Diaphorase was used to catalyze the oxidation of NADH with the concomitant reduction of resazurin to the fluorescent product resorufin. Resorufin fluorescence quantitatively reflected the production of NADH by the PHGDH reaction. To drive the forward reaction, two enzymes in the serine synthesis pathway subsequent to PHGDH, Phosphoserine aminotransferase (PSAT1) and phosphoserine phosphatase (PSPH) were also added to the reaction.
row,SMILES,IC50 [µM]
1,"Cn1c(C(=O)NC2(c3ccc(-c4nnn[nH]4)cc3)CCOC2)cc2c(Cl)c(Cl)ccc21 (racemic) [I-128 e148, (±)-4,5-Dichloro-1-methyl-N-[3-[4-(1H-tetrazol-5-yl)phenyl]tetrahydro-furan-3-yl]indole-2-carboxamide]",0.001 to 1
2,"Cn1c(C(=O)NC2(c3ccc(CC(=O)O)cc3)CCOC2)cc2c(Cl)c(Cl)ccc21 (racemic) [I-129 e149, (±)-2-[4-[3-[(4,5-Dichloro-1-methyl-indole-2-carbonyl)amino]tetrahydrofuran-3-yl]phenyl]acetic acid]",0.001 to 1
3,CN1CCC(NC(=O)c2cc3c(Cl)c(Cl)ccc3n2C)(c2ccc(C(=O)O)cc2)C1 (racemic) [I-130 e17],0.001 to 1
4,"Cn1c(C(=O)NC2(c3ccc(C(N)=O)cc3)CCOC2)cc2c(Cl)c(Cl)ccc21 (racemic) [I-131 e144, (±)-N-[3-(4-Carbamoylphenyl)tetrahydrofuran-3-yl]-4,5-dichloro-1-methyl-indole-2-carboxamide]",1 to 5
5,"Cn1c(C(=O)NC2(c3ccc(C#N)cc3)CCOC2)cc2c(Cl)c(Cl)ccc21 (racemic) [I-134 e143, 4,5-dichloro-N-[3-(4-cyanophenyl)tetrahydrofuran-3-yl]-1-methyl-indole-2-carboxamide]",1 to 5
6,"Cn1c(C(=O)NC2(c3ccc(Br)cc3)CCOC2)cc2c(Cl)c(Cl)ccc21 (racemic) [I-135 e142, (±)-N-[3-(4-Bromophenyl)tetrahydrofuran-3-yl]-4,5-dichloro-1-methyl-indole-2-carboxamide]",1 to 5
7,"Cn1c(C(=O)NC2(c3ccc(C(=O)O)cc3)CCOC2)cc2c(Cl)c(Cl)ccc21 (racemic) [I-136 e145, (±)-4-[3-[(4,5-Dichloro-1-methyl-indole-2-carbonyl)amino]tetrahydrofuran-3-yl]benzoic acid]",0.001 to 1
8,"Cn1c(C(=O)NC2(c3ccc(C(=O)O)cc3)CCOC2)cc2c(Cl)c(Cl)ccc21 (racemic) [I-137 e141, (±)-4-[3-[(4,5-Dichloro-1-methyl-indole-2-carbonyl)amino]tetrahydrofuran-3-yl]benzoic acid]",0.001 to 1
9,CNC(=O)NS(=O)(=O)N1CCCC(NC(=O)c2cc3c(Cl)c(Cl)ccc3n2C)(c2cccc(CO)c2)C1 (racemic) [I-138 e16],5 to 10
10,CNC(=O)NS(=O)(=O)N1CCCC(NC(=O)c2cc3c(Cl)c(Cl)ccc3n2C)(c2cccc(C(=O)O)c2)C1 (racemic) [I-139 e14],1 to 5
11,CNC(=O)NS(=O)(=O)N1CCCC(NC(=O)c2cc3c(Cl)c(Cl)ccc3n2C)(c2ccc(C(=O)O)cc2)C1 (racemic) [I-140 e15],0.001 to 1
12,"Cn1c(C(=O)NC2(c3cccc(C(N)=O)c3)CCOC2)cc2c(Cl)c(Cl)ccc21 (racemic) [I-141 e140, (±)-N-[3-(3-Carbamoylphenyl)tetrahydrofuran-3-yl]-4,5-dichloro-1-methyl-indole-2-carboxamide]",1 to 5
13,CNC(=O)NS(=O)(=O)N1CCCC(NC(=O)c2cc3c(Cl)c(Cl)ccc3n2C)(c2cccc(C#N)c2)C1 (racemic) [I-142 e7],5 to 10
14,"Cn1c(C(=O)NC2(c3cccc(C#N)c3)CCOC2)cc2c(Cl)c(Cl)ccc21 (racemic) [I-143 e139, (±)-4,5-dichloro-N-[3-(3-cyanophenyl)tetrahydrofuran-3-yl]-1-methyl-indole-2-carboxamide]",1 to 5
15,CNC(=O)NS(=O)(=O)N1CCCC(NC(=O)c2cc3c(Cl)c(Cl)ccc3n2C)(c2ccccc2)C1 (racemic) [I-146 e6],5 to 10
16,CC(=O)NS(=O)(=O)N1CCC(NC(=O)c2cc3c(Cl)c(Cl)ccc3n2C)(c2ccccc2)C1 (racemic) [I-147 e8],1 to 5
17,"Cn1c(C(=O)N[C@]2(c3ccc(C(=O)O)cc3)CCOC2)cc2c(Cl)c(Cl)ccc21 (single isomer, unassigned; peak 1) [I-133 or I-132 e146 peak 1]",0.001 to 1
18,"Cn1c(C(=O)N[C@@]2(c3ccc(C(=O)O)cc3)CCOC2)cc2c(Cl)c(Cl)ccc21 (single isomer, unassigned; peak 2) [I-132 or I-133 e147 peak 2]",0.001 to 1
19,CC(=O)NS(=O)(=O)N1CCC(NC(=O)c2cc3c(Cl)c(Cl)ccc3n2C)(c2ccc(C(=O)O)cc2)CC1 [I-144 e11],0.001 to 1
20,CC(=O)NS(=O)(=O)N1CCC(NC(=O)c2cc3c(Cl)c(Cl)ccc3n2C)(c2cccc(N)c2)CC1 [I-145 e13],5 to 10
21,CC(=O)NS(=O)(=O)N1CC(NC(=O)c2cc3c(Cl)c(Cl)ccc3n2C)(c2ccccc2)C1 [I-148 e9],5 to 10
22,CC(=O)NS(=O)(=O)N1CCC(NC(=O)c2cc3c(Cl)c(Cl)ccc3n2C)(c2cccc(CO)c2)CC1 [I-149 e12],5 to 10
23,CC(=O)Nc1cccc(C2(NC(=O)c3cc4c(Cl)c(Cl)ccc4n3C)CCN(C(C)=O)CC2)c1 [I-150 e5],5 to 10
24,CC(=O)NS(=O)(=O)N1CCC(NC(=O)c2cc3c(Cl)c(Cl)ccc3n2C)(c2cccc(C(=O)O)c2)CC1 [I-151 e10],1 to 5

# Target: T1, Full length (FL) 3-Phosphoglycerate Dehydrogenase (PHGDH)
# Assay: Full length (FL) PHGDH Diaphorase coupled assay (500 uM NAD)
# Type: biochemical
# Conditions: full-length PHGDH 5 nM, 30° C. 60 minutes, resorufin fluorescence
# Method: Full length (FL) 3-Phosphoglycerate Dehydrogenase (PHGDH) Diaphorase coupled assay (500 uM NAD)
# as §1
# Briefly, serial dilution of compounds were incubated in a volume of 20 μL in 384 well plates with the assay mixture containing 5 nM PHGDH, 500 nM PSAT1, 500 nM PSPH, 500 μM NAD^+, 80 uM 3-phosphoglycerate, 1 mM glutamate, 57 uM Resazurin and 0.2 mg/ml Diaphorase in assay buffer containing 50 mM Trisethanoloamine (TEA) pH8.0, 10 mM MgCl2, 0.01% Tween-20 and 0.05% Bovine Serum Albumin (BSA). The plate was then incubated at 30° C. for 60 minutes and resorufin fluorescence was measured at emission wavelength 598 nm following excitation at 525 nm. The positive control consisted of the complete reaction mixture with 4% DMSO and was set to 0% inhibition.
row,SMILES,IC50 [µM]
1,COc1cc2c(cc(C(=O)NC3(c4ccc(C(=O)O)cc4F)COC3)n2C)c(Cl)c1C [I-50 e75],0.001 to 1
2,COc1cc2c(cc(C(=O)NC3(c4ccc(C(=O)O)cc4C)COC3)n2C)c(Cl)c1Cl [I-51 e68],0.001 to 1
3,COc1cc2c(cc(C(=O)NC3(c4ccc(C(=O)O)cc4F)COC3)n2C)c(Cl)c1F [I-56 e78],0.001 to 1
4,COc1ccc2c(cc(C(=O)NC3(c4ccc(C(=O)O)cc4C)COC3)n2C)c1Cl [I-60 e65],0.001 to 1
5,COc1cc2c(cc(C(=O)NC3(c4ccc(CC(=O)O)cc4F)COC3)n2C)c(Cl)c1F [I-61 e47],0.001 to 1
6,COc1cc2c(cc(C(=O)NC3(c4ccc(CC(=O)O)cc4F)COC3)n2C)c(Cl)c1C [I-62 e46],0.001 to 1
7,Cc1ccc2c(cc(C(=O)NC3(c4ccc(CC(=O)O)cc4F)COC3)n2C)c1Cl [I-63 e44],0.001 to 1
8,COc1ccc2c(cc(C(=O)NC3(c4ccc(C(=O)O)cc4Cl)COC3)n2C)c1Cl [I-65 e69],0.001 to 1
9,COc1cc2c(cc(C(=O)NC3(c4ccc(C(=O)O)cc4Cl)COC3)n2C)c(Cl)c1Cl [I-66 e67],0.001 to 1
10,COc1cc(CC(=O)O)ccc1C1(NC(=O)c2cc3c(Cl)c(Cl)ccc3n2C)COC1 [I-69 e52],5 to 10
11,CC(C(=O)O)c1ccc(C2(NC(=O)c3cc4c(Cl)c(Cl)ccc4n3C)COC2)c(F)c1 (stereo not drawn) [I-70 e61],0.001 to 1
12,COc1ccc2c(cc(C(=O)NC3(c4ccc(C(=O)O)cc4F)COC3)n2C)c1Cl [I-75 e66],0.001 to 1
13,COc1cc2c(cc(C(=O)NC3(c4ccc(C(=O)O)cc4F)COC3)n2C)c(Cl)c1Cl [I-76 e42],0.001 to 1
14,Cn1c(C(=O)NC2(c3ccc(C(=O)O)cc3F)COC2)cc2c(Cl)c(Cl)ccc21 [I-79 e41],0.001 to 1
15,Cc1cc(CC(=O)O)ccc1C1(NC(=O)c2cc3c(Cl)c(Cl)ccc3n2C)COC1 [I-82 e51],0.001 to 1
16,Cc1cc(C(=O)O)ccc1C1(NC(=O)c2cc3c(Cl)c(Cl)ccc3n2C)COC1 [I-83 e50],0.001 to 1
17,Cn1c(C(=O)NC2(c3ccc(CC(=O)O)cc3Cl)COC2)cc2c(Cl)c(Cl)ccc21 [I-84 e49],0.001 to 1
18,Cn1c(C(=O)NC2(c3ccc(C(=O)O)cc3Cl)COC2)cc2c(Cl)c(Cl)ccc21 [I-85 e48],0.001 to 1
19,COc1cc2c(cc(C(=O)NC3(c4ccc(CC(=O)O)cc4F)COC3)n2C)c(Cl)c1Cl [I-86 e45],0.001 to 1
20,Cn1c(C(=O)NC2(c3ccc(CC(=O)O)cc3F)COC2)cc2c(Cl)c(Cl)ccc21 [I-90 e43],0.001 to 1
21,COc1ccc2c(cc(C(=O)NC3(c4ccc(CC(=O)O)cc4)COC3)n2C)c1Cl [I-103 e39],0.001 to 1
22,"CCC(=O)NS(=O)(=O)c1ccc(C2(NC(=O)c3cc4c(Cl)c(OC)ccc4n3C)COC2)cc1 [I-161 e164, 4-Chloro-5-methoxy-1-methyl-N-(3-(4-(N-propanoylsulfamoyl)phenyl)-oxetan-3-yl)-1H-indole-2-carboxamide]",0.001 to 1
23,"COc1ccc2c(cc(C(=O)NC3(c4ccc(C(=O)NS(C)(=O)=O)cc4)COC3)n2C)c1Cl [I-162 e165, 4-Chloro-5-methoxy-1-methyl-N-(3-(4-((methylsulfonyl)carbamoyl)-phenyl)oxetan-3-yl)-1H-indole-2-carboxamide]",0.001 to 1
24,COc1ccc2c(cc(C(=O)NC3(c4ccc(S(=O)(=O)NC(C)=O)cc4)COC3)n2C)c1Cl [I-164 e88],0.001 to 1
